Measured values taken from article PMC6627067, “Probing Multi-Target Action of Phlorotannins as New Monoamine Oxidase Inhibitors and Dopaminergic Receptor Modulators with the Potential for Treatment of Neuronal Disorders” (Marine Drugs, 2019).
“And” between values parts separate entries of the source, which are not always exact repeats. Equal values may be shown once. Read-outs that look alike come from different tables or passages of the source.

Assays:
[1] = molecular target: T1, hD3 (DRD3) (Homo sapiens, UniProt P35462); conditions: agonist effect at 100 µM
[2] = molecular target: T2, hNK1 (TACR1) (Homo sapiens, UniProt P25103); test: GPCR cell-based functional assay, intracellular Ca2+ level, NK1; conditions: for % Stimulation of control agonist response, hNK1: agonist effect at 100 µM
[3] = molecular target: T3, hV1A (AVPR1A) (Homo sapiens, UniProt P37288); test: GPCR cell-based functional assay, intracellular Ca2+ level, V1A; conditions: for % Stimulation of control agonist response, hV1A: agonist effect at 100 µM
[4] = parameters: method as in PMID 25996411; conditions: cited from earlier work
[5] = molecular target: T4, hMAO-B (Homo sapiens, UniProt P27338); parameters: method as in PMID 28251489; conditions: cited from earlier work; for IC50: recombinant hMAO-B, obtained from the literature
T4 sequence (P27338 1-520): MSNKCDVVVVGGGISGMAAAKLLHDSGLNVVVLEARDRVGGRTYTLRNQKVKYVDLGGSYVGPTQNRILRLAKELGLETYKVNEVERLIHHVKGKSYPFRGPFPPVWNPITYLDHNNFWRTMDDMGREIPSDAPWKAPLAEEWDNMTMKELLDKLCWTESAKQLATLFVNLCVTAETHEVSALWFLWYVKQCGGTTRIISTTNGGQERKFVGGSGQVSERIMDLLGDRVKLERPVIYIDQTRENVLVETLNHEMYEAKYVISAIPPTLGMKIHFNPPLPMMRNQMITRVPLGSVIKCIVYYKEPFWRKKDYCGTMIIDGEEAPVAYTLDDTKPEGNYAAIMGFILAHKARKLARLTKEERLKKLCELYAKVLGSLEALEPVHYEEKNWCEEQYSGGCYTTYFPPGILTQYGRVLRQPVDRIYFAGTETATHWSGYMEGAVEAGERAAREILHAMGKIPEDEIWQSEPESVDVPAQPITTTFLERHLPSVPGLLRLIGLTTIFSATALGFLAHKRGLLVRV

[6] = molecular target: T5, hMAO-A (Homo sapiens, UniProt P21397); parameters: method as in PMID 28251489; conditions: cited from earlier work; for SI (selective index): ratio of hMAO-A IC50/hMAO-B IC50; for IC50: recombinant hMAO-A, obtained from the literature
T5 sequence (P21397 1-527): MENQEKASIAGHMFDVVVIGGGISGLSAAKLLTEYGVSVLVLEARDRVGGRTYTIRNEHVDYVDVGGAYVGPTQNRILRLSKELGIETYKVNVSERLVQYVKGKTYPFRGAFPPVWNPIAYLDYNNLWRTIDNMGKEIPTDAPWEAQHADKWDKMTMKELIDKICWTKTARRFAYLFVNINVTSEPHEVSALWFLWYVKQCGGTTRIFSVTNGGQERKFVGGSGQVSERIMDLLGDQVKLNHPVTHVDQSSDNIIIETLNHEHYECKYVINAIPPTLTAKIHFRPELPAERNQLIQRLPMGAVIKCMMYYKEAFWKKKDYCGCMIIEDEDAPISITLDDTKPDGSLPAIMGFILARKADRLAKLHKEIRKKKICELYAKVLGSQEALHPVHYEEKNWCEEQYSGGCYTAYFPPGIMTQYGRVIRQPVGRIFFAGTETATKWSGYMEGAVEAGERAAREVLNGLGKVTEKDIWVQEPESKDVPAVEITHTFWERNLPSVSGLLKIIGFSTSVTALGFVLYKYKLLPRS

[7] = molecular target: T6, hD4 (DRD4) (Homo sapiens, UniProt P21917); conditions: for % Stimulation of control agonist response, hD4: agonist effect at 100 µM
T6 sequence (P21917 1-419): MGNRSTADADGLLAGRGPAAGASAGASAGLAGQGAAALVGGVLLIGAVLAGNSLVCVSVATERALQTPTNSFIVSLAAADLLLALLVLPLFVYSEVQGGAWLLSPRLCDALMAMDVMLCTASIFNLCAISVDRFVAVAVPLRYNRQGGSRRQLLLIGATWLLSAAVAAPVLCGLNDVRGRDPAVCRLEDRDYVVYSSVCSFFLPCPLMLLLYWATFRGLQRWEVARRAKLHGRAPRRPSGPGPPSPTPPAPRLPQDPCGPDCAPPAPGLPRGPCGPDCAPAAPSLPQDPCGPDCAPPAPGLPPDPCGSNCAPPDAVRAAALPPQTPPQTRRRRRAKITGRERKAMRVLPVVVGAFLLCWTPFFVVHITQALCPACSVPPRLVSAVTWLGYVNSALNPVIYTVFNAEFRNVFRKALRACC

[8] = molecular target: T7, hM5 (CHRM5) (Homo sapiens, UniProt P08912); test: GPCR cell-based functional assay, intracellular Ca2+ level, M5
T7 sequence (P08912 1-532): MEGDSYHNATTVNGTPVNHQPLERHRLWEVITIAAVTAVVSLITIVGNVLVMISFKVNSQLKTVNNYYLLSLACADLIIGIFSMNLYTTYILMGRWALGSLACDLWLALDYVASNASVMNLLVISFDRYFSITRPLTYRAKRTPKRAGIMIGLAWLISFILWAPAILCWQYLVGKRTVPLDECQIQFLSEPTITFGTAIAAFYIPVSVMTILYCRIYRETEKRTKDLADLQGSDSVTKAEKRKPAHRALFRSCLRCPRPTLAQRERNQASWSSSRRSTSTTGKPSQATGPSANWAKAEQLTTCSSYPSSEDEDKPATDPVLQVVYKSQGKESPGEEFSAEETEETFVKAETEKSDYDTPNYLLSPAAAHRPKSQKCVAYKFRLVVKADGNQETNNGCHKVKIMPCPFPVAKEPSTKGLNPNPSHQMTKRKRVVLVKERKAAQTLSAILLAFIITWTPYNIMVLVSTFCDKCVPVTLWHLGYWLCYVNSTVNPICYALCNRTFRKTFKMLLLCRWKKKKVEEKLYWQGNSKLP

[9] = molecular target: T8, h5-HT1A (HTR1A) (Homo sapiens, UniProt P08908); test: GPCR cell-based functional assay, intracellular Ca2+ level, 5-HT1A
T8 sequence (P08908 1-422): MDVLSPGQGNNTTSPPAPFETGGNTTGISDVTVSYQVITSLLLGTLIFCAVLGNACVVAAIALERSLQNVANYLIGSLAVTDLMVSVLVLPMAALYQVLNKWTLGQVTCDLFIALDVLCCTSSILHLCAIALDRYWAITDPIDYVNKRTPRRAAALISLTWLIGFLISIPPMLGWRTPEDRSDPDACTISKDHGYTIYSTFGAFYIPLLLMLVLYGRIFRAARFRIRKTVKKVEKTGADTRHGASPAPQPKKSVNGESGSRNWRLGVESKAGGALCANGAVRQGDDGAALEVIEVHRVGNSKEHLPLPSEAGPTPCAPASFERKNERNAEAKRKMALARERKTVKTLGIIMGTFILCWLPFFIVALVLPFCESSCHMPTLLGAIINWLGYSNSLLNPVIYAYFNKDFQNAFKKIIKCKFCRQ

[10] = molecular target: T1, hD3 (DRD3); test: cell-based
[11] = molecular target: T9, hD1 (DRD1) (Homo sapiens, UniProt P21728); test: cell-based; conditions: read-out: % Inhibition of control agonist response, hD1
[12] = molecular target: T9, hD1 (DRD1); conditions: agonist effect at 100 µM
[13] = molecular target: T7, hM5 (CHRM5); conditions: previous GPCR cell-based study; cited from earlier work
[14] = molecular target: T2, hNK1 (TACR1); conditions: previous GPCR cell-based study; cited from earlier work
[15] = molecular target: T8, h5-HT1A (HTR1A); conditions: previous GPCR cell-based study; cited from earlier work
[16] = molecular target: T1, hD3 (DRD3); parameters: host or cells: CHO cells; conditions: previous GPCR cell-based study; cited from earlier work
[17] = molecular target: T3, hV1A (AVPR1A); conditions: previous GPCR cell-based study; cited from earlier work
[18] = molecular target: T9, hD1 (DRD1); parameters: host or cells: CHO cells; conditions: previous GPCR cell-based study; cited from earlier work
[19] = molecular target: T6, hD4 (DRD4); parameters: host or cells: CHO cells; conditions: previous GPCR cell-based study; cited from earlier work

T9 sequence (P21728 whole entry): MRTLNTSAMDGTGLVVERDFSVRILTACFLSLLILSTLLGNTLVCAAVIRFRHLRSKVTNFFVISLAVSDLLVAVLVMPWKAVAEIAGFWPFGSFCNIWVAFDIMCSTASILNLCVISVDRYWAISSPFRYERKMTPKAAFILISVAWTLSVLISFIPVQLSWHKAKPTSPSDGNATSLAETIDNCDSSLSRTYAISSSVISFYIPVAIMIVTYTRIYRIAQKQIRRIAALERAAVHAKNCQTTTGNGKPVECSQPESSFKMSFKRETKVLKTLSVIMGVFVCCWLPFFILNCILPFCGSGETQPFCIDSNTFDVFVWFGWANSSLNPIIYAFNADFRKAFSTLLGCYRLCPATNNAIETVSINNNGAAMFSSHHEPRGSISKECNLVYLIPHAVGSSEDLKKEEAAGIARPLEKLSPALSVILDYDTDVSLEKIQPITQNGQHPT
T2 sequence (P25103 whole entry): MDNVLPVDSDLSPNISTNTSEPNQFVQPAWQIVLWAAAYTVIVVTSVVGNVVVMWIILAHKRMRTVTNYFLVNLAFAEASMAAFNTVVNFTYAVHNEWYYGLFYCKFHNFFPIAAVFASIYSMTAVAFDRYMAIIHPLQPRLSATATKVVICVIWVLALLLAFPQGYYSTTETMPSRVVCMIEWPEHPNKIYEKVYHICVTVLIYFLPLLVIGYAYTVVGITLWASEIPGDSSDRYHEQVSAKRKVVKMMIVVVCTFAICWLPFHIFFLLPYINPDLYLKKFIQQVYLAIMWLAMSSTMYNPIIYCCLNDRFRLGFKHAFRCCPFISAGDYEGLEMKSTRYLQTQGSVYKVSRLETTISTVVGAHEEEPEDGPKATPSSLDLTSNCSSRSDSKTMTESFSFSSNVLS
T3 sequence (P37288 whole entry): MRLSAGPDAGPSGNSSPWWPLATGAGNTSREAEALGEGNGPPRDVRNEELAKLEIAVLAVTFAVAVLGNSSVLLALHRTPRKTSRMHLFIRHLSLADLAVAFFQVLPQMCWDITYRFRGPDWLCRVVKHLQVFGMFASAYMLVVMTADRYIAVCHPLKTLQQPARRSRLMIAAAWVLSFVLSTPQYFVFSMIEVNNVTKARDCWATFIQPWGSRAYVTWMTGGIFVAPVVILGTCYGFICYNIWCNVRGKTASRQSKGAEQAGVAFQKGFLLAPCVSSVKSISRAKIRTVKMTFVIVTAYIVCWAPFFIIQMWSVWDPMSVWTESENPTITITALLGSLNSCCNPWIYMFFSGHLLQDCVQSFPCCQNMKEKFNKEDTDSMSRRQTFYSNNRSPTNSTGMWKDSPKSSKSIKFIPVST
T1 sequence (P35462 whole entry): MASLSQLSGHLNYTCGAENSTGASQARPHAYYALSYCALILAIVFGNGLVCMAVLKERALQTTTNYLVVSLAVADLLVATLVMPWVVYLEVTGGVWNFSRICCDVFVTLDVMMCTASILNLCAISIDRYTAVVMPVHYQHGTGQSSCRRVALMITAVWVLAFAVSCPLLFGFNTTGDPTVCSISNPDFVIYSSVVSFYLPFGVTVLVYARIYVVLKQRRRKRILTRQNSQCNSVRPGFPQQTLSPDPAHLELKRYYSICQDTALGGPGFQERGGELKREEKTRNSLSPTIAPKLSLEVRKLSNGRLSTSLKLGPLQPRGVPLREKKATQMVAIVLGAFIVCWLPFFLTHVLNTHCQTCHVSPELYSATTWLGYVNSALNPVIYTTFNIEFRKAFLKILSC

## Oc1cc(O)cc(Oc2c(O)cc(O)c3c2Oc2c(O)cc(Oc4c(O)cc(Oc5c(O)cc(O)c6c5Oc5c(O)cc(O)cc5O6)cc4O)cc2O3)c1 [Dieckol, dieckol]
[1]
  % Stimulation of control agonist response, hD3: 81.10 ± 0.66 ^B %
[1]; listed as dieckol
  % Stimulation of control agonist response, hD3: 81.10 ± 0.66%
[2]
  % Stimulation of control agonist response, hNK1: 54.70 ± 1.41 ^B %
[2]; listed as dieckol
  % Stimulation of control agonist response, hNK1: 54.70%
[2]; antagonist effect at 100 µM, read-out: % Inhibition of control agonist response, hNK1
  inhibition at 100 µM: 77.7%
[3]
  % Stimulation of control agonist response, hV1A: 64.20 ± 0.14 ^A %
[3]; listed as dieckol
  % Stimulation of control agonist response, hV1A: 64.20 ± 0.14% and 64.2%
[3]; antagonist effect at 100 µM, read-out: % Inhibition of control agonist response, hV1A
  inhibition at 100 µM: 46.2%
[4]
  BBB penetration: effectively penetrate the BBB
[5]
  Ki: 18.5 µM
  IC50: 43.4 ± 0.73 µM
[6]
  Ki: 20.3 µM
  SI (selective index): 0.26
  IC50: 11.4 ± 1.06 µM
[7]
  EC50: 34 ± 8.62 µM
  % Stimulation of control agonist response, hD4: 74.43 ± 6.37 ^B %
[7]; listed as dieckol
  % Stimulation of control agonist response, hD4: 74.43 ± 6.37%
[7]; read-out: % Inhibition of control agonist response, hD4
  inhibition at 100 µM: -5.35%
[8]; agonist effect at 100 µM
  % Stimulation of control agonist response, hM5: 7.60 ± 17.11 ^AB %
[8]; antagonist effect at 100 µM, read-out: % Inhibition of control agonist response, hM5
  inhibition at 100 µM: 19.6%
[9]; agonist effect at 100 µM
  % Stimulation of control agonist response, h5-HT1A: 1.75 ± 0.64 ^A %
[9]; antagonist effect at 100 µM, read-out: % Inhibition of control agonist response, h5-HT1A
  inhibition at 100 µM: 76.8%
[10]
  EC50: 44.2 ± 3.25 µM
[10]; read-out: % Inhibition of control agonist response, hD3
  inhibition at 100 µM: -2.5%
[11]
  inhibition at 100 µM: 60.6%
[12]
  % Stimulation of control agonist response, hD1: 1.05 ± 0.21 ^A %

## Oc1cc(O)cc(Oc2c(O)cc(O)c3c2Oc2c(O)cc(O)cc2O3)c1 [Eckol, eckol]
[13]
  Effect on M5 receptor: null effects
[14]
  Effect on NK1 receptor: null effects
[15]
  Effect on 5HT1A receptor: null effects
[5]
  Ki: 163 µM
  IC50: 83.4 ± 1.48 µM
[16]
  Effect on hD3R: agonist
[6]; NC = noncompetitive, Mixed = mixed type
  Inhibition type hMAO-A: Mixed
[6]
  Ki: 20.3 µM
  SI (selective index): 0.09
  IC50: 7.2 ± 0.71 µM
[17]
  Effect on V1A receptor: null effects
[18]
  Effect on D1R: null effects
[19]
  Effect on hD4R: agonist
